Experimental data published in PMC12040169 (PLOS Biology, 2025).

Assay: in vitro
Conditions: human, hela cells

| SMILES | viability at 28.5 h, 10 µM [%] |
| --- | --- |
| CN(C)[C@@H]1C[C@H](C2(c3ccccc3)OCCO2)CC[C@H]1N(C)C(=O)Cc1ccc(Cl)c(Cl)c1 [CBK016338] | 87.8 |

Same assay, conditions: human, hela cells, % viability

| SMILES | viability at 28.5 h, 10 µM [%] |
| --- | --- |
| FC(F)(F)Oc1cccc(OCCOc2nccnc2N2CCNCC2)c1 [CBK014323G] | 100 |
| OCCOc1cccc(OCCOc2nccnc2N2CCNCC2)c1 [CBK014339G] | 112 |
| CC1(C)Cc2c(oc(N)c2C#N)CO1 [CBK014395] | 101 |
| S=c1[nH]nc(COc2ccccc2)n1C1CCCCC1 [CBK014411] | 96.2 |
| COCCN(C(=O)CCC(=O)NCCc1ccccc1)C1CCN(C)CC1 [CBK014576] | 96.9 |
| Cn1c(S)nnc1-c1ccccc1O [CBK014577] | 111 |
| CC(C)(N)C(=O)N1CC(C(=O)NCCN(Cc2ccccc2)S(C)(=O)=O)C(c2ccccc2)C1 (stereo not shown) [CBK014706T] | 93.3 |
| c1ccc2c(COc3nccnc3N3CCNCC3)ccnc2c1 [CBK014866] | 90.3 |
| Oc1ccc(-c2n[nH]c(=S)n2-c2ccccc2)cc1 [CBK014887] | 113 |
| c1cncc(CCOc2nccnc2N2CCNCC2)c1 [CBK014992] | 101 |
| CC(=O)Nc1ccc(/N=C/c2ccc(Cl)cc2)cc1 [CBK015166] | 92.3 |
| COc1ccc(CCNC(=S)NC2CC3CCC2C3)cc1OC (stereo not shown) [CBK015410] | 90.8 |
| COc1cccc(CNC(C(=O)O)c2ccc3c(c2)OCO3)c1 (stereo not shown) [CBK015420D] | 89.1 |
| O=C(Nc1ccccn1)Nc1ccccn1 [CBK015518] | 95.5 |
| CCCc1cc(C(N)=O)cc(CCC)c1OCC [CBK015537] | 98 |
| CC(CN(C)C)C(=O)c1cn(C)c2ccccc12 (stereo not shown) [CBK015540] | 102 |
| Cc1c(C(=O)O)[nH]c2c1C(=O)CCC2 [CBK015548] | 97.5 |
| COc1ccc(C(=O)N(C)C)cc1OC [CBK015550] | 115 |
| O=C(Nc1ccccc1)OC1CCCCC1 [CBK015569] | 116 |
| Cc1cc2ccccc2c(=O)n1CCO [CBK015621] | 102 |
| O=c1nc(O)c(I)cn1C1OC(CO)C(O)C1O (stereo not shown) [CBK015625] | 82.3 |
| CN1CCCC1c1cccnc1 (stereo not shown) [CBK015659] | 94 |

| SMILES | viability at 28.5 h, 10 µM [%] |
| --- | --- |
| COc1ccc(O[C@@H]2CCCC[C@@H]2N2CCCCC2)cc1 [CBK015661C] | 90.6 |
| CC(C)NC(=O)c1ccc(Cl)cc1 [CBK015665] | 101 |
| O=[N+]([O-])c1ccccc1S(=O)(=O)Nc1cc(C(F)(F)F)ccc1Cl [CBK015721] | 93.3 |
| COc1ccc2c(c1)CCC(c1ccccc1)=C2c1ccc(OCC(O)CN)cc1 (stereo not shown) [CBK015723C] | 70.5 |
| N#Cc1ccc(N)c2ccccc12 [CBK015754] | 90.6 |
| O=C1NCCc2c1[nH]c1ccc(Cl)cc21 [CBK015755] | 38.9 |
| CC(C)(C)O/N=C/c1cccnc1 [CBK015761C] | 109 |
| O=C1NCCc2c1[nH]c1c(Cl)cccc21 [CBK015762] | 78.2 |
| Cc1ccccc1Oc1ccccc1NC(=O)CN1CCCCC1 [CBK015781C] | 98.3 |
| CN(C)/N=C\c1cccc(O)c1 [CBK015814] | 95.2 |
| CC1CCCC(C)N1CC(=O)Nc1ccccc1Oc1ccccc1 (stereo not shown) [CBK015824C] | 119 |
| CCOC(=O)c1c(-c2ccccc2)csc1NS(=O)(=O)c1ccc(C)cc1 [CBK015841] | 95.1 |
| Cc1cnoc1-c1cc(Cl)cc(Cl)c1O [CBK015870] | 89.3 |
| Cc1cc(OCCC#N)cc(C)c1Cl [CBK015872] | 98.2 |
| CCN(CC)CCC(=O)c1ccc(Cl)cc1 [CBK015906C] | 101 |
| CO[C@]1(c2cccc(C)c2)CC[C@@H](N2CCCCC2)CC1 [CBK015909G] | 83 |
| CNCCCC1(c2ccccc2)SC(C)(C)c2ccccc21 (stereo not shown) [CBK015933C] | 90.6 |
| O=C(NCCc1ccccn1)c1ccc(Cl)cc1Cl [CBK015946] | 81.4 |
| Fc1ccc(C2CCc3n[nH]cc3C2)cc1 (stereo not shown) [CBK015957C] | 92 |
| C/C(=N/NC(=O)C(C)CN1CCOCC1)c1ccc(Cl)cc1 (stereo not shown) [CBK016045] | 81.4 |
| COc1ccc2c(c1)CC1(CCC(NCCCC(=O)c3ccc(F)cc3)CC1)C2 (stereo not shown) [CBK016054C] | 87.1 |
| CN(C)CCCn1nc2n(c1=O)-c1ccccc1SC(c1ccccc1)C2 (stereo not shown) [CBK016063] | 105 |

| SMILES | viability at 28.5 h, 10 µM [%] |
| --- | --- |
| Cc1ccc(-c2ccn(C(C)C(=O)N(C)C)n2)cc1 (stereo not shown) [CBK016069] | 98.4 |
| S=C(NCC1CCN(C(=S)Nc2cccc3ccccc23)CC1)Nc1cccc2ccccc12 [CBK016070] | 107 |
| Cc1nnc2n1-c1ccc(Cl)cc1C(c1ccccc1)=NN2CCCC(=O)c1ccc(F)cc1 [CBK016076] | 86.6 |
| Cc1cn(C(C)C(=O)N(C)C)nc1C1CCCCC1 (stereo not shown) [CBK016092] | 113 |
| ON=C1CCC(c2ccccc2)CC1 (stereo not shown) [CBK016102] | 113 |
| CCCN(C(C)C(=O)N(C)C)S(=O)(=O)c1ccc(Cl)cc1 (stereo not shown) [CBK016123] | 96.8 |
| O=C(O)c1ccc(-n2cccc2)cc1 [CBK016141] | 110 |
| CC(Oc1cccc2ccccc12)C(=S)N(C)c1ccccc1 (stereo not shown) [CBK016158] | 88.2 |
| Cc1cc(Br)ccc1S(=O)(=O)N(C)c1ccc(N2CCNCC2)c2ccccc12 [CBK016170C] | 96 |
| OCc1nc2cc3cn[nH]c3cc2[nH]1 [CBK016203] | 86.5 |
| OC(CN[C@H]1CC[C@](O)(c2ccc(Cl)cc2)CC1)c1ccccc1 (stereo partly shown) [CBK016206] | 98.4 |
| COc1ccc(C23CCCN(C)C2C[C@@H](O)CC3)cc1OC (stereo partly shown) [CBK016226C] | 94.1 |
| CC(C)CCc1ccc(C#N)c(=O)[nH]1 [CBK016227] | 98.8 |
| O=C(O)c1ccccc1C1SCCCS1 [CBK016303] | 91.4 |
| S=c1[nH]nnn1-c1ccc(Cl)c(Cl)c1 [CBK016327] | 96.7 |
| c1ccc2sc(SCCN3CCCCC3)nc2c1 [CBK016366] | 109 |
| COc1cccc(-n2c(C)nnc2C2(OC(C)=O)CCN(CCc3ccccc3)CC2)c1 [CBK016371] | 108 |
| O=C(C[S+]([O-])c1nc2ccccc2[nH]1)N1CCOCC1 (stereo not shown) [CBK016397] | 98.1 |
| O=C(O)COCc1nn(-c2ccc(Br)cc2)c2c1CCCC2 [CBK016404] | 98.6 |
| CCCN1CCCC(c2cccc(O)c2)C1 (stereo not shown) [CBK016405B] | 92.6 |
| Cc1cccc(C)c1NC(=S)N1CCC2(CC1)OCCO2 [CBK016408] | 117 |
| COc1ccc2c3c(cc(Cl)cc13)CC(N)C2 (stereo not shown) [CBK016450C] | 84.2 |

| SMILES | viability at 28.5 h, 10 µM [%] |
| --- | --- |
| Cc1nc(O)c2c3c(sc2n1)CCCC3 [CBK016462] | 83.1 |
| CCc1c(CC)c(OC(=O)C(N)C(C)C)c2ccccc2c1OC (stereo not shown) [CBK016484C] | 93.4 |
| CC(C)(C)C(=O)c1cnc2sc3ccccc3n12 [CBK016512] | 91.6 |
| CCC1C(c2ccc(C)cc2)=CCC(C(=O)NCCCN(C)C)C1C (stereo not shown) [CBK016514] | 79.6 |
| COC(=O)c1cc(NC(=O)OC(C)(C)C)ccc1O [CBK016529] | 86 |
| CC(=O)c1c(CSc2ccccc2)nn2c1CCCC2 [CBK016543] | 78.9 |
| O=[N+]([O-])c1ccc(N2CCCCC2)s1 [CBK016566] | 104 |
| COc1ccc2[nH]cc(CCNC3CCc4cccc(OC)c4C3)c2c1 (stereo not shown) [CBK016569C] | 80.1 |
| CCCN(CC1CC1)C1CCc2cccc(C(N)=O)c2C1 (stereo not shown) [CBK016579] | 114 |
| CCC(C)(C)NC(=NC#N)Nc1cccnc1 [CBK016580] | 85.1 |
| CC(=O)Oc1ccc2c(=O)cc(N(C)C)oc2c1C [CBK016581] | 60.5 |
| S=C(NC1=NCCS1)Nc1ccccc1 [CBK016591] | 95.2 |
| CC(C)c1noc(-c2ncn3c2c(=O)n(C(C)C)c2cc(F)ccc23)n1 [CBK016659] | 102 |
| Cc1c(C)n(C)c2nc(N3CCCC3)nc(N3CCCC3)c12 [CBK016683C] | 90.1 |
| CCC(c1c(O)c2ccccc2oc1=O)c1cccc2ccccc12 (stereo not shown) [CBK016684] | 102 |
| O=c1[nH]c2cccc3c2n1C[C@H](NCCc1ccccc1)C3 [CBK016688C] | 105 |
| O=c1oc2ccccc2c(O)c1Cc1c(O)c2ccccc2oc1=O [CBK016703G] | 74 |
| CC(C)Nc1cccnc1N1CCN(C(=O)c2ccncc2)CC1 [CBK016714] | 79 |
| COc1ccc2c(c1)sc1ncc(C#N)n12 [CBK016716] | 87.9 |
| CC(C)c1c(N)nc(SCc2ccccc2)nc1Cl [CBK016721] | 123 |

Same assay, conditions: human, hela cells, % viability, bulk resorufin, single well

| SMILES | viability at 28.5 h, 10 µM [%] |
| --- | --- |
| CCCC(=O)C1(c2ccccc2)CCN(C(=O)Nc2cccc(SC)c2)CC1 [CBK016441] | 94.6 |
